# Measurements published in PMC7305236, “The atypical chemokine receptor ACKR3/CXCR7 is a broad-spectrum scavenger for opioid peptides” (Nature Communications, 2020).
# Like-named read-outs stand apart in the source and are kept apart here.
# Tests used:
# [1] = target: T1, CCR1 (Homo sapiens, UniProt P32246); assay: Figure S2a opioid peptide screen on chemokine receptors; type: cell-based; parameters: dose or concentration left out as unconfirmed; conditions: replicate 1, read-out: CCR1 activity, ctrl+ = 100
# T1 construct: expressed in transfected cells
# T1 sequence (P32246 1-355): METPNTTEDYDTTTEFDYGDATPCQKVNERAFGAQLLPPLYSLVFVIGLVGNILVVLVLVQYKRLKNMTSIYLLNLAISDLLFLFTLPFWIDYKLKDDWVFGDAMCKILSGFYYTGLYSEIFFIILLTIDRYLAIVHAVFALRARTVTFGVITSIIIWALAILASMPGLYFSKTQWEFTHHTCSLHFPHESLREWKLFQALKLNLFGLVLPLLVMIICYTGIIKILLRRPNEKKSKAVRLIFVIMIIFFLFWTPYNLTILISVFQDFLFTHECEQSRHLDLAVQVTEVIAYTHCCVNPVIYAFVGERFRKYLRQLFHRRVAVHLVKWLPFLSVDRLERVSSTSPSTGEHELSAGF
# [2] = target: T2, CXCR3A (Homo sapiens, UniProt P49682); assay: as above; type: cell-based; parameters: dose or concentration left out as unconfirmed; conditions: replicate 1, read-out: CXCR3A activity, ctrl+ = 100
# T2 construct: expressed in transfected cells; host or cells: U87 cells
# T2 sequence (P49682 1-368): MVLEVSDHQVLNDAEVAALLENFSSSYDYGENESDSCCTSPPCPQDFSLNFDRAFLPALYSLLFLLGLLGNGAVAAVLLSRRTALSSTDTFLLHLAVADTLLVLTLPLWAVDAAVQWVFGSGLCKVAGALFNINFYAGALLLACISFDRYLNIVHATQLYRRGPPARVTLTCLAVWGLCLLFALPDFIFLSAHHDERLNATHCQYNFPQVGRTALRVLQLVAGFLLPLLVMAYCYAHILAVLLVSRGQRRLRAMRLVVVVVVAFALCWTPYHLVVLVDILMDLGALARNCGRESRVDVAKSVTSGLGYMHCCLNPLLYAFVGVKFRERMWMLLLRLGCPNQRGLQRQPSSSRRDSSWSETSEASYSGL
# [3] = target: T3, CCR3 (Homo sapiens, UniProt P51677); assay: as above; parameters: dose or concentration left out as unconfirmed; conditions: read-out: CCR3 activity, ctrl+ = 100, Figure S2a
# T3 sequence (P51677 1-355): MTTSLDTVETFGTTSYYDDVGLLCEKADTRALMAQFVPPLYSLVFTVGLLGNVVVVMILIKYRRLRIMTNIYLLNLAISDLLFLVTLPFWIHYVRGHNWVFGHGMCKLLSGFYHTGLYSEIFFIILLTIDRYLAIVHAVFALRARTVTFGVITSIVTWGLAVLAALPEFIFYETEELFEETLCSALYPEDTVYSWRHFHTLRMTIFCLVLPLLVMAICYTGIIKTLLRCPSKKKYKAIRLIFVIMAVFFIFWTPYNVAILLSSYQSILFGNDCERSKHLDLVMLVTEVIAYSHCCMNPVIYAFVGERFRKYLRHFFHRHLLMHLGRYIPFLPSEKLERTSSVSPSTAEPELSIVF
# [4] = target: T4, ACKR3 (Homo sapiens, UniProt P25106); assay: cell-based; parameters: dose or concentration left out as unconfirmed; conditions: read-out: ACKR3 activity, ctrl+ = 100, Figure S2a; replicate 2
# [5] = target: T5, CCR6 (Homo sapiens, UniProt P51684); assay: Figure S2a opioid peptide screen on chemokine receptors; type: cell-based; parameters: dose or concentration left out as unconfirmed; conditions: replicate 1, read-out: CCR6 activity, ctrl+ = 100
# T5 construct: expressed in transfected cells
# T5 sequence (P51684 1-374): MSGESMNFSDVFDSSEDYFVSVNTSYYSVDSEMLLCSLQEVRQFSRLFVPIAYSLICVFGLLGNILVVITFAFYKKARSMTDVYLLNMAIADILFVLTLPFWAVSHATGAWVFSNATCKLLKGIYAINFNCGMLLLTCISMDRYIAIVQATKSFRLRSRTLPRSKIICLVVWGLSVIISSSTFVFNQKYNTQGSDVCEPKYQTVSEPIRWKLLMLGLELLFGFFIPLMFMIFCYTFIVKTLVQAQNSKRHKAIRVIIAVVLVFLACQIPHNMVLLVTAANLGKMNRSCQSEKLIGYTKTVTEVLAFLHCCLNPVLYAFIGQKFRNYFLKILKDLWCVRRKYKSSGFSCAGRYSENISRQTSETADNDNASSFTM
# [6] = target: T6, ACKR2 (Homo sapiens, UniProt O00590); assay: as above; type: cell-based; parameters: dose or concentration left out as unconfirmed; conditions: replicate 2, read-out: ACKR2 activity, ctrl+ = 100
# T6 construct: expressed in transfected cells; host or cells: U87 cells (human glioblastoma)
# T6 sequence (O00590 1-384): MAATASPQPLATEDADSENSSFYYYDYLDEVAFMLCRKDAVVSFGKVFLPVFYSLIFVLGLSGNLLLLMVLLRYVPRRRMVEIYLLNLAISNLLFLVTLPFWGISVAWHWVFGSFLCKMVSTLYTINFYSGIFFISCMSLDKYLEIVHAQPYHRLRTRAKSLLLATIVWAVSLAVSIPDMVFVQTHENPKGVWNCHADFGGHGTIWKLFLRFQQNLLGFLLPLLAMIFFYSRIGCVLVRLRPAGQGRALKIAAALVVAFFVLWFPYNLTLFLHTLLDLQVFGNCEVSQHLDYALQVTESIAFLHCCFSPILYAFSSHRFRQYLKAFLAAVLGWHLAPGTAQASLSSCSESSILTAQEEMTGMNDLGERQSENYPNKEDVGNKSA
# [7] = target: T7, CXCR4 (Homo sapiens, UniProt P61073); type: cell-based
# T7 construct: expressed in transfected cells; host or cells: U87, transient cotransfection of pNBe vectors
# [8] = target: T8, KOR (Homo sapiens, UniProt P41145); assay: Figure 6h, KOR, DMSO vs Bafilomycin treatment; type: cell-based; parameters: expressed in transfected cells; host or cells: U87 (human glioblastoma); conditions: n = 3 or 4 as in cell
# [9] = target: T9, ACKR (Homo sapiens, UniProt P25106); assay: Figure 6h, ACKR, DMSO vs Bafilomycin treatment; type: cell-based; conditions: n = 3 or 4 as in cell
# T9 construct: expressed in transfected cells; host or cells: U87 cells (human glioblastoma)
# [10] = target: T4, ACKR3; type: cell-based; parameters: expressed in transfected cells; conditions: 100 nM
# [11] = target: T8, KOR; type: cell-based; parameters: expressed in transfected cells; host or cells: U87 (human glioblastoma), transient co-transfection; conditions: 100 nM
# [12] = target: NOP (Homo sapiens, UniProt P41146); assay: Activity of ligands towards NOP (source data Fig 4a, 4c); type: cell-based; conditions: 100 nM
# [13] = target: T10, DOR (Homo sapiens, UniProt P41143); type: cell-based; conditions: 100 nM
# T10 construct: expressed in transfected cells; host or cells: U87 (human glioblastoma)
# [14] = target: T11, CXCR7 (Homo sapiens, UniProt P25106); assay: Figure S1a: screen of opioid peptides on CXCR7; type: cell-based
# T11 construct: expressed in transfected cells; host or cells: U87 cells
# [15] = target: T12, U87 ACKR3 (Homo sapiens, UniProt P25106); assay: Figure 6c source data, U87 ACKR3; type: cell-based; conditions: Figure 6c inset, U87 ACKR3 + labelled peptide, titrated agonist not given
# T12 construct: expressed in transfected cells
# [16] = 'DMSO vs Bafilomycin treatment'
# [17] = first of two columns under 'DMSO vs Bafilomycin treatment' (presumably DMSO)
# T10 sequence (P41143 whole entry): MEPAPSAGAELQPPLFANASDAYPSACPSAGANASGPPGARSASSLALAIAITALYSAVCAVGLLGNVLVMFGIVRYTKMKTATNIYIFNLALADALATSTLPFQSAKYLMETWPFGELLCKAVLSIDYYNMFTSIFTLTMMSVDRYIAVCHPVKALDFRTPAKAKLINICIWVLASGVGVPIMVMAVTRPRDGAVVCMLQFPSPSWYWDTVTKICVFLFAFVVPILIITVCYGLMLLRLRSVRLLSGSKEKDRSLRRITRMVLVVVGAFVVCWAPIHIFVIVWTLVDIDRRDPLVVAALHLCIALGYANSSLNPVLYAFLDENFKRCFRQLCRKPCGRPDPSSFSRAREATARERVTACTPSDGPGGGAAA
# T8 sequence (P41145 whole entry): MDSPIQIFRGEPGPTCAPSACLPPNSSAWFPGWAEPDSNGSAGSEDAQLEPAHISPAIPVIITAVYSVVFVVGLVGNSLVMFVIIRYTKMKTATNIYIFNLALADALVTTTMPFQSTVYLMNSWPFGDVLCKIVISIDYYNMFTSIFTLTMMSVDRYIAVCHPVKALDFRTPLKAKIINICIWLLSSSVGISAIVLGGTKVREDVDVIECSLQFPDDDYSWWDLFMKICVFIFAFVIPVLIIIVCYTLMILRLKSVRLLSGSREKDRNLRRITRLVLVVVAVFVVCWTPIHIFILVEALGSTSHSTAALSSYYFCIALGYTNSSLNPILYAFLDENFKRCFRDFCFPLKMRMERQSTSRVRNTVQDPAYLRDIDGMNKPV
# NOP, sequence (P41146 whole entry): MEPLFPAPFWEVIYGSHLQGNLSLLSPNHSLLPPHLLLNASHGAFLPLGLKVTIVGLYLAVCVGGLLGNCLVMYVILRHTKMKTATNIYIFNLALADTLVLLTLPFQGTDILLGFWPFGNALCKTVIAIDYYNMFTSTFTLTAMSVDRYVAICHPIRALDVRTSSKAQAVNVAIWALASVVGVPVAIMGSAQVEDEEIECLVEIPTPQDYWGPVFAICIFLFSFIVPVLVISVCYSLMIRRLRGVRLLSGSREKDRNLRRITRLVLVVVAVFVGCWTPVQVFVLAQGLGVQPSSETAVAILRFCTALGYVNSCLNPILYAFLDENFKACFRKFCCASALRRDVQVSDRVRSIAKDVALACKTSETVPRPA
# T12 sequence (P25106 whole entry): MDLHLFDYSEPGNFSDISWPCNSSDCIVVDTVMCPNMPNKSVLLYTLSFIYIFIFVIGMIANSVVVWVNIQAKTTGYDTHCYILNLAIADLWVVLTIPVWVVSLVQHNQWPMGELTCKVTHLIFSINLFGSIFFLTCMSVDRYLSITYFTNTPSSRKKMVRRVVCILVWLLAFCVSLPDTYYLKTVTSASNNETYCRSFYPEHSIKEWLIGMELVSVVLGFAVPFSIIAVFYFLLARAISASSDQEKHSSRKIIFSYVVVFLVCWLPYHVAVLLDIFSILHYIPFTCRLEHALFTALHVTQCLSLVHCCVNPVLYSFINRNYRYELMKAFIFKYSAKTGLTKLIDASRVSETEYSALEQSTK
# T4 sequence (P25106 whole entry): as above
# T7 sequence (P61073 whole entry): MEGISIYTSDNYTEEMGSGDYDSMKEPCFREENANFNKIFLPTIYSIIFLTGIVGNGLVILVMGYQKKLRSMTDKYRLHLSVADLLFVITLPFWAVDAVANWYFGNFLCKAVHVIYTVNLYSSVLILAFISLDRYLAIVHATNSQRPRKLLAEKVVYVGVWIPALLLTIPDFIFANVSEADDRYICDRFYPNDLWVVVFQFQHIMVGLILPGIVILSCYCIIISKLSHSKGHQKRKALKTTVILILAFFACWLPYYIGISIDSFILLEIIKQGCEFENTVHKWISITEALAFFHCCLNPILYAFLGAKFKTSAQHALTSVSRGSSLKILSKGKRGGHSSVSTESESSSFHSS
# T9 sequence (P25106 whole entry): as the sequence (P25106 whole entry) above
# T11 sequence (P25106 whole entry): as above
compound,measurement,setting,value
CC[C@H](C)[C@H](NC(=O)[C@H](C)NC(=O)[C@H](CC(N)=O)NC(=O)[C@H](CCCCN)NC(=O)[C@H](Cc1ccccc1)NC(=O)[C@H](CC(C)C)NC(=O)[C@@H](NC(=O)[C@@H](NC(=O)[C@H](CC(C)C)NC(=O)[C@@H]1CCCN1C(=O)[C@@H](NC(=O)[C@H](CCC(N)=O)NC(=O)[C@H](CO)NC(=O)[C@H](CCCCN)NC(=O)[C@H](CCC(=O)O)NC(=O)[C@H](CO)NC(=O)[C@@H](NC(=O)[C@H](CCSC)NC(=O)[C@H](Cc1ccccc1)NC(=O)CNC(=O)CNC(=O)[C@@H](N)Cc1ccc(O)cc1)[C@@H](C)O)[C@@H](C)O)C(C)C)[C@@H](C)O)C(=O)N[C@H](C(=O)N[C@@H](CCCCN)C(=O)N[C@@H](CC(N)=O)C(=O)N[C@@H](C)C(=O)N[C@@H](Cc1ccc(O)cc1)C(=O)N[C@@H](CCCCN)C(=O)N[C@@H](CCCCN)C(=O)NCC(=O)N[C@@H](CCC(=O)O)C(=O)O)[C@@H](C)CC [-endorphin],activation,[1],6.2%
same,activation,[2],2.35%
same,activation,[3]; replicate 1,5.63%
same,activation,[3]; replicate 2,8.01%
same,activation,[4],3.39%
same,activation,[5],1.21%
same,activation,[6],16.8%
c1cc(CN2CCCNCCNCCCNCC2)ccc1CN1CCCNCCNCCCNCC1 [AMD3100],"Figure S1a value, CXCR4",[7]; replicate 1,-2.401
same,"Figure S1a value, CXCR4",[7]; replicate 2,38.4908
CSCC[C@H](NC(=O)[C@H](Cc1ccccc1)NC(=O)CNC(=O)CNC(=O)[C@@H](N)Cc1ccccc1)C(=O)N[C@@H](CCCNC(=N)N)C(=O)N[C@@H](CCCNC(=N)N)C(=O)N[C@@H](CCCCN)C(N)=O [LIH383],"Mean ± SEM (Figure 6h, KOR)",[8]; [16],"102,6 ± 3,011, n=3"
same,"Mean ± SEM (Figure 6h, KOR)",[8]; [17],"99,75 ± 4,761, n=3"
same,"Mean ± SEM (Figure 6h, ACKR)",[9]; [16],"25,99 ± 1,65, n=3"
same,"Mean ± SEM (Figure 6h, ACKR)",[9]; [17],"41,87 ± 2,846, n=3"
C=CCN1CC[C@]23CCCC[C@H]2[C@H]1Cc1ccc(O)cc13 [Levallorphan],"ACKR3 activity, Fig 4a",[10]; replicate 1,29.7947
same,"ACKR3 activity, Fig 4a",[10]; replicate 2,-20.4867
same,"ACKR3 activity, Fig 4a",[10]; replicate 3,-0.5025
same,"KOR activity, Fig 4a",[11]; replicate 1,-79.0502
same,"KOR activity, Fig 4a",[11]; replicate 2,-66.9071
same,"KOR activity, Fig 4a",[11]; replicate 3,-81.2861
same,"NOP activity, Fig 4a",[12]; replicate 1,19.6254
same,"NOP activity, Fig 4a",[12]; replicate 2,-2.413
same,"NOP activity, Fig 4a",[12]; replicate 3,-13.909
same,"DOR activity, Fig 4a",[13]; replicate 1,-48.6722
same,"DOR activity, Fig 4a",[13]; replicate 2,-49.4812
same,"DOR activity, Fig 4a",[13]; replicate 3,-45.6651
C=CCN1CC[C@]23c4c5ccc(O)c4O[C@H]2C(=O)CC[C@@]3(O)[C@H]1C5 [Naloxone],"ACKR3 activity, Fig 4a",[10]; replicate 1,-16.5596
same,"ACKR3 activity, Fig 4a",[10]; replicate 2,-16.7812
same,"ACKR3 activity, Fig 4a",[10]; replicate 3,-9.5257
Oc1ccc2c3c1O[C@H]1c4[nH]c5ccccc5c4C[C@@]4(O)[C@@H](C2)N(CC2CC2)CC[C@]314 [Naltrindole],"ACKR3 activity, Fig 4a",[10]; replicate 1,7.799
same,"ACKR3 activity, Fig 4a",[10]; replicate 2,7.647
same,"ACKR3 activity, Fig 4a",[10]; replicate 3,1.281
Oc1ccc2c3c1O[C@H]1c4[nH]c5c(c4C[C@@]4(O)[C@@H](C2)N(CC2CC2)CC[C@]314)C[C@@]1(O)[C@H]2Cc3ccc(O)c4c3[C@@]1(CCN2CC1CC1)[C@H]5O4 [nor-Binaltrophimine],"ACKR3 activity, Fig 4a",[10]; replicate 1,6.23
same,"ACKR3 activity, Fig 4a",[10]; replicate 2,7.454
same,"ACKR3 activity, Fig 4a",[10]; replicate 3,1.2819
same,"NOP activity, Fig 4a",[12]; replicate 1,13.2975
same,"NOP activity, Fig 4a",[12]; replicate 2,23.1448
same,"NOP activity, Fig 4a",[12]; replicate 3,-11.7109
Buprenorphine,"ACKR3 activity, Fig 4a",[10]; replicate 1,-5.792
same,"ACKR3 activity, Fig 4a",[10]; replicate 2,26.4917
same,"ACKR3 activity, Fig 4a",[10]; replicate 3,-14.8896
CXCL11,"Figure S1a value, CXCR4",[7]; replicate 1,49.1082
same,"Figure S1a value, CXCR4",[7]; replicate 2,78.3882
same,"Figure S1a value, CXCR7",[14]; replicate 1,84.3234
same,"Figure S1a value, CXCR7",[14]; replicate 2,115.296
H-MRRKFGGF-NH2 [LIH inverse],EC50,[15]; replicate 1,0.0648 µM
same,EC50,[15]; replicate 2,0.119 µM
same,EC50,[15]; replicate 3,0.112 µM
same,EC50,[15]; replicate 4,0.0717 µM
